Five molecules from US8609638B2, “Enzyme inhibiting compounds and methods” (priority 2009, dated 2013) can be followed below.

pIC50, pKi: −log10 of the molar value. Like-named read-outs stand apart in the source and are kept apart here. Some results are limits rather than exact numbers.

In the assay the target is T1, IspH (LytB), E-4-hydroxy-3-methyl-but-2-enyl diphosphate reductase (Aquifex aeolicus, UniProt O67625).
T1 construct: inferred from Ni-NTA purification with imidazole elution; made in house; host or cells: E. coli BL-21(DE3)
Description: biochemical. The arrangement: species or system A. aeolicus. As to the method: A. aeolicus IspH Protein Purification. BL-21(DE3) cells expressing IspH from A. aeolicus were grown in LB media supplemented with […] ampicillin at 37° C. until the OD600 reached 0.6. Cells were then induced with 200 μg/L anhydrotetracycline and then grown at 20° C. for 15 hours. Cells were harvested by centrifugation (9000 rpm, 8 min, 4° C.) and kept at −80° C. until use. Cell pellets were resuspended and lysed in B-PER (Thermo Scientific, Rockford, Ill.) protein extraction reagent for 1 hour at 4° C. and then centrifuged at […] at 4° C. for 15 minutes. The supernatant was applied to a Ni-NTA column equilibrated with 5 mM imidazole in pH 8.0 buffer containing 50 mM Tris HCl and 150 mM NaCl. After washing with 20 mM imidazole, protein was eluted with 100 mM imidazole. Fractions were collected and dialyzed in pH 8.0 buffer containing 50 mM Tris HCl, 150 mM NaCl, 5% glycerol, and 1 mM DTT, four times. The purified protein was flash-frozen in liquid nitrogen and stored at −80° C. until use.
E. coli IspH Protein Purification. BL21 DE3 (Invitrogen) cells harboring an E. coli IspH construct were grown in LB media at 37° C. until the OD600 reached 0.6. Induction was performed with 200 ng/mL anhydrotetracycline at 20° C. for 15 hours. Cells were harvested by centrifugation at 9000 rpm for 8 min and stored at −80° C. Cell pellets were resuspended and lysed in B-PER protein extraction reagent for about 1 hour at 4° C., and then the lysate was centrifuged at […] for 30 minutes. The supernatant was collected and loaded onto an IBA Strep-tag column equilibrated with buffer W (100 mM Tris.HCl, 150 mM NaCl, pH 8.0). After washing with buffer W, protein was eluted using buffer E (buffer W containing 2.5 mM desthiobiotin). Fractions were collected and dialyzed in pH 8.0 buffer containing 50 mM Tris.HCl, 150 mM NaCl, 5% glycerol, and 1 mM DTT, twice. The purified protein was flashfrozen in liquid nitrogen and stored at −80° C. until use.
Protein Reconstitution. […] Before reconstitution, protein was transferred into a Coy vinyl anaerobic chamber after being degassed on a Schlenk line. The following steps were performed inside the anaerobic chamber with an oxygen level <2 ppm. In a typical reconstitution experiment, 10 mM DTT and ˜0.5 mg of elemental sulfur were added to 3 mL of 0.6 mM protein solution in a pH 8.0 buffer containing 50 mM Tris HCl, 150 mM NaCl, and 5% glycerol. After 1.5 hours under stirring, FeCl3 was slowly added from a 30 mM stock solution to 6 equiv. After 3 hours, an aliquot of the solution was centrifuged and a UV-vis spectrum recorded. If the A410 nm/A280 nm ratio was ≧0.38, the protein was then desalted by passing through a PD10 column. If the ratio was <0.38, more DTT, elemental sulfur, and FeCl3 were added, and the sample was incubated with stirring (for typically ˜2 h) until the 410 nm/280 nm absorption ratio was ˜0.38. The reconstituted protein was then concentrated by ultrafiltration, and the protein concentration was determined by using a Bio-Rad (Hercules, Calif.) protein assay kit.
IspH inhibition assays. Assays were performed anaerobically at room temperature according to the methods of Altincicek et. al. (FEBS Lett. (2002) 532: 437-440) with the following modifications. […]
For enzyme assays, various amounts of the test inhibitor ([…]) were added and the reactions were monitored at 732 nm. […]

T1 sequence (O67625 whole entry): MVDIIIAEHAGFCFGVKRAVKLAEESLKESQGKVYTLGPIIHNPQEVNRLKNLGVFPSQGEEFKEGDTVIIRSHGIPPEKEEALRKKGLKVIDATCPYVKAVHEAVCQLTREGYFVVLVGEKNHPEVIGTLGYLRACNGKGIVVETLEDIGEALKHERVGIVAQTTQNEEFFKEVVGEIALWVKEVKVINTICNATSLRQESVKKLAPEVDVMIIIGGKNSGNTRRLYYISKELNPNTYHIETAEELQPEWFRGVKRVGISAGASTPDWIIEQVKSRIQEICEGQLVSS

On to `C#CC[PH](=O)CP(=O)(O)O` (centres unmarked) [BPH-1084, [[(Prop-2-ynyl)phosphinyl]methyl]phosphonic acid], for which, where the note is “relative to parent or comparator compounds”, the “activity in IspH inhibition (in words)” value was “decreased activity”. As a reminder, the pKi is the Ki on a negative log10 scale, so that one unit is a factor of ten. Take `C#CCO` [Propargyl alcohol, reference compound]: the pKi (IspH inhibition, read-out: Ki) is < 2.00. For orientation: pIC50 means the negative decadic logarithm of the IC50, by convention in mol/L. Higher therefore signals a small IC50. In the case of `C#CCOP(=O)(O)OP(=O)(O)O` [BPH-1061, Prop-2-ynyl diphosphate], under “IspH inhibition, inhibitor incubated 10 minutes before 34 μM HMBPP”, the pIC50 is 5.17. `C#CCCOP(=O)(O)OP(=O)(O)O` [BPH-1077, But-3-ynyl diphosphate]: the pKi (IspH inhibition, Ki deduced from IC50 by Cheng-Prusoff equation, read-out: Ki) was ~6.70. As for `O=C(O)CCCCOP(=O)(O)OP(=O)(O)O` [BPH-988, 5-Pentanoic acid diphosphate], the pKi (Ki) is 4.29.
